Laboratory results published in the supplement of paper PMC13380429.

Columns and labels:
Conditions in all cases: 72 h
Caco-2 [1] = test: cell viability relative to DMSO; higher = less toxic
Calu-3 [2] = test: as above
HepG2 [3] = test: as above
U2OS [4] = test: as above
Vero E6 [5] = test: as above
Caco-2 [6] = test: relative viability EC50 (midpoint between 100% and the lowest measured viability); higher = less toxic
Calu-3 [7] = test: as above
HepG2 [8] = test: as above
U2OS [9] = test: as above
Vero E6 [10] = test: as above
Caco-2 [11] = test: drug sensitivity score (DSS) for viability; higher = more toxic; extreme values may be limits of the assay
Calu-3 [12] = test: as above
HepG2 [13] = test: as above
U2OS [14] = test: as above
Vero E6 [15] = test: as above

Compound	cell viability (Caco-2 [1]; 1 nM) [%]	cell viability (Caco-2 [1]; 10 nM) [%]	cell viability (Caco-2 [1]; 100 nM) [%]	cell viability (Caco-2 [1]; 1000 nM) [%]	cell viability (Caco-2 [1]; 10000 nM) [%]	cell viability (Calu-3 [2]; 1 nM) [%]	cell viability (Calu-3 [2]; 10 nM) [%]	cell viability (Calu-3 [2]; 100 nM) [%]	cell viability (Calu-3 [2]; 1000 nM) [%]	cell viability (Calu-3 [2]; 10000 nM) [%]	cell viability (HepG2 [3]; 1 nM) [%]	cell viability (HepG2 [3]; 10 nM) [%]	cell viability (HepG2 [3]; 100 nM) [%]	cell viability (HepG2 [3]; 1000 nM) [%]	cell viability (HepG2 [3]; 10000 nM) [%]	cell viability (U2OS [4]; 1 nM) [%]	cell viability (U2OS [4]; 10 nM) [%]	cell viability (U2OS [4]; 100 nM) [%]	cell viability (U2OS [4]; 1000 nM) [%]	cell viability (U2OS [4]; 10000 nM) [%]	cell viability (Vero E6 [5]; 1 nM) [%]	cell viability (Vero E6 [5]; 10 nM) [%]	cell viability (Vero E6 [5]; 100 nM) [%]	cell viability (Vero E6 [5]; 1000 nM) [%]	cell viability (Vero E6 [5]; 10000 nM) [%]	relative viability EC50 (Caco-2 [6]) [µM]	relative viability EC50 (Calu-3 [7]) [µM]	relative viability EC50 (HepG2 [8]) [µM]	relative viability EC50 (U2OS [9]) [µM]	relative viability EC50 (Vero E6 [10]) [µM]	drug sensitivity score (Caco-2 [11])	drug sensitivity score (Calu-3 [12])	drug sensitivity score (HepG2 [13])	drug sensitivity score (U2OS [14])	drug sensitivity score (Vero E6 [15])
COc1cc(NS(C)(=O)=O)ccc1Nc1c2ccccc2nc2ccccc12 [amsacrine]	101	90.9	97.3	91.6	14.3	105	93.7	80.3	61.5	12.3	87.4	89.9	78.5	48.8	29	103	98.1	99.5	96.9	37.2	93	89.3	94.6	65.2	41.7	2.35	0.866	0.241	2.79	0.677	6.1	10.3	12.6	3.9	7.4
COc1cc(C(C)=O)ccc1O [apocynin]	104	94.2	100	86.8	93.9	95.2	89.6	91.5	89.5	105	95.8	95.8	104	98.8	96.8	99.8	97.9	101	96.2	98.2	97.8	100	96.6	98.8	93.6	> 10	> 10	> 10	> 10	> 10	0	0	0	0	0
CC(C)(C)NCC(O)CSc1nc(-c2ccc(C(N)=O)s2)cs1 (stereo not given) [arotinolol]	105	104	90.6	106	107	102	98.4	107	94.1	99.9	88.7	96.9	100	92.8	104	96	100	99.9	102	94.6	103	98.1	106	108	98.4	> 10	> 10	> 10	> 10	> 10	0	0	0	0	0
CO[C@H]1O[C@@H]2O[C@@]3(C)CC[C@H]4[C@H](C)CC[C@@H]([C@H]1C)[C@@]24OO3 [artemether]	95.4	94.5	97.3	86.6	86.2	106	108	96.3	101	96.5	97.6	101	103	92.1	87.8	99.1	97.1	101	96.6	94.4	103	106	92.1	95.9	96.9	> 10	> 10	> 10	> 10	> 10	0.4	0	0.4	0	0
CCOc1nc2cccc(C(=O)O)c2n1Cc1ccc(-c2ccccc2-c2noc(=O)[nH]2)cc1 [azilsartan]	103	91.4	91.9	103	95.7	94.2	98.2	96	93	91.5	93.5	103	102	108	102	102	93.6	99.5	93.3	97.5	99	102	98.1	103	94.3	> 10	> 10	> 10	> 10	> 10	0	0	0	0	0
COc1ccc(NC(=O)c2ccc(C(=N)N(C)C)cc2)c(C(=O)Nc2ccc(Cl)cn2)c1 [betrixaban]	101	97.5	97.5	97.6	91.5	90.9	101	105	95.1	95.5	98.6	100	105	96.3	100	96.2	100	95.6	100	97.8	98.7	99.1	97.3	96.4	93.9	> 10	> 10	> 10	> 10	> 10	0	0	0	0	0
Cc1ccc(C23CNCC2C3)cc1 (stereo not given) [bicifadine]	103	99	106	110	97.4	115	96	104	105	103	99.7	88.8	100	96.3	94.7	96.8	98.9	103	102	96.4	97.7	93.8	98.8	96.3	99.8	> 10	> 10	> 10	> 10	> 10	0	0	0	0	0
Cn1cc(C2=C(c3cn(CCCSC(=N)N)c4ccccc34)C(=O)NC2=O)c2ccccc21 [bisindolylmaleimide-IX]	100	97.7	101	94.9	25.3	112	96.4	100	91.2	18.1	98.6	104	105	96.8	5.1	105	100	106	103	5.7	91.7	101	89.3	92.6	15	2.61	2.28	2.92	3.32	2.45	4.9	6	5.7	5	5.9
CC(C)(C)OC(=O)c1ncn2c1[C@@H]1CCCN1C(=O)c1c(Br)cccc1-2 [bretazenil]	94	93.9	99.3	96.1	100	90	92.9	98.2	99.8	96	83.1	94.1	95.2	105	103	98.2	98.8	105	92.6	98.2	91.1	100	95.5	96.5	104	> 10	> 10	> 10	> 10	> 10	0	0	0	0	0
CCC(C(=O)O)c1ccc(CC(C)C)cc1 (stereo not given) [butibufen]	102	92.8	103	94.4	99.3	97.1	105	99.9	113	105	107	101	99	110	106	97.4	95.5	97.9	102	104	93.3	92.5	87.6	95.9	105	> 10	> 10	> 10	> 10	> 10	0	0	0	0	0
C[C@H](CS)C(=O)N1CCC[C@H]1C(=O)O [captopril]	96.1	92.8	96.8	90.9	89.6	103	111	93.4	95.4	97.4	99.5	95.7	105	95.3	108	98.6	101	94.9	98	97.3	108	100	107	100	96.6	> 10	> 10	> 10	> 10	> 10	0	0	0	0	0
CC1(C)S[C@@H]2[C@H](NC(=O)C(C(=O)O)c3ccccc3)C(=O)N2[C@H]1C(=O)O (stereo not given in full) [carbenicillin]	104	106	92.5	93.9	94.9	105	98.3	103	105	99.9	97.2	100	103	103	98	103	102	98.8	102	96	102	100	102	95.7	95.7	> 10	> 10	> 10	> 10	> 10	0	0	0	0	0
CC(C(=O)O)c1ccc2c(c1)[nH]c1ccc(Cl)cc12 (stereo not given) [carprofen]	96.4	96.5	88.4	95.7	94.6	96.5	95.5	104	104	94	103	101	90.6	96.5	99.6	96.5	102	96.1	100	98.7	107	101	115	99.4	101	> 10	> 10	> 10	> 10	> 10	0	0	0	0	0
CNCCCOc1cc(F)c(-c2c(Cl)nc3ncnn3c2N[C@@H](C)C(F)(F)F)c(F)c1 [cevipabulin]	102	110	72.3	44.7	48.1	106	116	83.4	43.7	34.7	96.8	102	29.3	21.9	22.8	94.8	102	65.8	25.6	21	105	106	89.5	11.6	8.3	0.1	0.237	0.0431	0.121	0.241	13.7	12.5	22.9	18.1	17.9
